Assay results reported in the supplement of paper PMC10307832.

Columns and labels:
Assay in all cases: relative viability (nuclei count vs DMSO), 5 days (fraction); higher = more cells survive
201T = system: 201T
Outline: (§1)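 Relative viability divides the nuclei count in treated wells by that in vehicle wells. Lung cancer cell lines were seeded in 1536-well plates, dosed by pin tool the next day, and fixed and stained after 5 days in one step with final 0.05% Triton X-100, 1% formaldehyde and 1 ug/ml Hoechst. Dosing was a single drug or a fixed anchor-drug dose plus five library-drug doses (not always all listed) in √10 steps, and values are medians of duplicate plates imaged at 4×.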

A-427 = system: A-427
Outline: as §1

BEN = system: BEN
Outline: as §1

COR-L 105 = system: COR-L 105
Outline: as §1

COR-L23 = system: COR-L23
Outline: as §1

EKVX = system: EKVX
Outline: as §1

HARA = system: HARA
Outline: as §1

HCC-15 = system: HCC-15
Outline: as §1

HCC-44 = system: HCC-44
Outline: as §1

HCC-827 = system: HCC-827
Outline: as §1

LK-2 = system: LK-2
Outline: as §1

NCI-H1437 = system: NCI-H1437
Outline: as §1

NCI-H1666 = system: NCI-H1666
Outline: as §1

NCI-H1792 = system: NCI-H1792
Outline: as §1

NCI-H1975 = system: NCI-H1975
Outline: as §1

NCI-H23 = system: NCI-H23
Outline: as §1

NCI-H358 = system: NCI-H358
Outline: as §1

NCI-H441 = system: NCI-H441
Outline: as §1

NCI-H596 = system: NCI-H596
Outline: as §1

NCI-H650 = system: NCI-H650
Outline: as §1

NCI-H838 = system: NCI-H838
Outline: as §1

SK-MES-1 = system: SK-MES-1
Outline: as §1

NC(=O)Nc1cc(-c2cccc(F)c2)sc1C(=O)N[C@H]1CCCNC1 [AZD7762] + C[C@@H](Oc1cc(-c2cnn(C3CCNCC3)c2)cnc1N)c1c(Cl)ccc(F)c1Cl [Crizotinib] (partner 1 µM)
relative viability (201T; first compound 0.01 µM): 0.969
relative viability (201T; first compound 0.03162 µM): 1.02
relative viability (201T; first compound 0.1 µM): 1.03
relative viability (201T; first compound 0.3162 µM): 1.04
relative viability (201T; first compound 1 µM): 1.16
relative viability (A-427; first compound 0.01 µM): 1.01
relative viability (A-427; first compound 0.03162 µM): 0.869
relative viability (A-427; first compound 0.1 µM): 0.992
relative viability (A-427; first compound 0.3162 µM): 0.815
relative viability (A-427; first compound 1 µM): 0.386
relative viability (BEN; first compound 0.01 µM): 0.911
relative viability (BEN; first compound 0.03162 µM): 0.924
relative viability (BEN; first compound 0.1 µM): 0.827
relative viability (BEN; first compound 0.3162 µM): 0.859
relative viability (BEN; first compound 1 µM): 0.616
relative viability (COR-L 105; first compound 0.01 µM): 0.877
relative viability (COR-L 105; first compound 0.03162 µM): 0.772
relative viability (COR-L 105; first compound 0.1 µM): 0.591
relative viability (COR-L 105; first compound 0.3162 µM): 0.406
relative viability (COR-L 105; first compound 1 µM): 0.271
relative viability (COR-L23; first compound 0.01 µM): 0.775
relative viability (COR-L23; first compound 0.03162 µM): 0.656
relative viability (COR-L23; first compound 0.1 µM): 0.616
relative viability (COR-L23; first compound 0.3162 µM): 0.45
relative viability (COR-L23; first compound 1 µM): 0.117
relative viability (EKVX; first compound 0.01 µM): 0.875
relative viability (EKVX; first compound 0.03162 µM): 1.03
relative viability (EKVX; first compound 0.1 µM): 0.874
relative viability (EKVX; first compound 0.3162 µM): 0.798
relative viability (EKVX; first compound 1 µM): 0.412
relative viability (HARA; first compound 0.01 µM): 1.11
relative viability (HARA; first compound 0.03162 µM): 0.98
relative viability (HARA; first compound 0.1 µM): 0.894
relative viability (HARA; first compound 0.3162 µM): 1.01
relative viability (HARA; first compound 1 µM): 0.25
relative viability (HCC-15; first compound 0.01 µM): 0.948
relative viability (HCC-15; first compound 0.03162 µM): 0.776
relative viability (HCC-15; first compound 0.1 µM): 0.818
relative viability (HCC-15; first compound 0.3162 µM): 0.774
relative viability (HCC-15; first compound 1 µM): 0.825
relative viability (HCC-44; first compound 0.01 µM): 0.892
relative viability (HCC-44; first compound 0.03162 µM): 0.808
relative viability (HCC-44; first compound 0.1 µM): 0.854
relative viability (HCC-44; first compound 0.3162 µM): 0.787
relative viability (HCC-44; first compound 1 µM): 0.745
relative viability (HCC-827; first compound 0.01 µM): 0.948
relative viability (HCC-827; first compound 0.03162 µM): 0.904
relative viability (HCC-827; first compound 0.1 µM): 0.933
relative viability (HCC-827; first compound 0.3162 µM): 0.965
relative viability (HCC-827; first compound 1 µM): 0.843
relative viability (LK-2; first compound 0.01 µM): 0.203
relative viability (LK-2; first compound 0.03162 µM): 0.221
relative viability (LK-2; first compound 0.1 µM): 0.225
relative viability (LK-2; first compound 0.3162 µM): 0.203
relative viability (LK-2; first compound 1 µM): 0.228
relative viability (NCI-H1437; first compound 0.01 µM): 0.955
relative viability (NCI-H1437; first compound 0.03162 µM): 0.787
relative viability (NCI-H1437; first compound 0.1 µM): 1.01
relative viability (NCI-H1437; first compound 0.3162 µM): 0.869
relative viability (NCI-H1437; first compound 1 µM): 1.02
relative viability (NCI-H1666; first compound 0.01 µM): 1.58
relative viability (NCI-H1666; first compound 0.03162 µM): 1.16
relative viability (NCI-H1666; first compound 0.1 µM): 1.23
relative viability (NCI-H1666; first compound 0.3162 µM): 0.993
relative viability (NCI-H1666; first compound 1 µM): 0.695
relative viability (NCI-H1792; first compound 0.01 µM): 1.06
relative viability (NCI-H1792; first compound 0.03162 µM): 1
relative viability (NCI-H1792; first compound 0.1 µM): 0.975
relative viability (NCI-H1792; first compound 0.3162 µM): 0.646
relative viability (NCI-H1792; first compound 1 µM): 1.12
relative viability (NCI-H1975; first compound 0.01 µM): 1.06
relative viability (NCI-H1975; first compound 0.03162 µM): 0.937
relative viability (NCI-H1975; first compound 0.1 µM): 0.837
relative viability (NCI-H1975; first compound 0.3162 µM): 0.903
relative viability (NCI-H1975; first compound 1 µM): 0.638
relative viability (NCI-H23; first compound 0.01 µM): 0.687
relative viability (NCI-H23; first compound 0.03162 µM): 0.517
relative viability (NCI-H23; first compound 0.1 µM): 0.542
relative viability (NCI-H23; first compound 0.3162 µM): 0.323
relative viability (NCI-H23; first compound 1 µM): 0.203
relative viability (NCI-H358; first compound 0.01 µM): 0.743
relative viability (NCI-H358; first compound 0.03162 µM): 0.695
relative viability (NCI-H358; first compound 0.1 µM): 0.581
relative viability (NCI-H358; first compound 0.3162 µM): 0.521
relative viability (NCI-H358; first compound 1 µM): 0.202
relative viability (NCI-H441; first compound 0.01 µM): 1.15
relative viability (NCI-H441; first compound 0.03162 µM): 0.745
relative viability (NCI-H441; first compound 0.1 µM): 1.15
relative viability (NCI-H441; first compound 0.3162 µM): 0.995
relative viability (NCI-H441; first compound 1 µM): 0.89
relative viability (NCI-H596; first compound 0.01 µM): 0.991
relative viability (NCI-H596; first compound 0.03162 µM): 0.942
relative viability (NCI-H596; first compound 0.1 µM): 1.02
relative viability (NCI-H596; first compound 0.3162 µM): 1.11
relative viability (NCI-H596; first compound 1 µM): 0.863
relative viability (NCI-H650; first compound 0.01 µM): 0.882
relative viability (NCI-H650; first compound 0.03162 µM): 0.594
relative viability (NCI-H650; first compound 0.1 µM): 0.714
relative viability (NCI-H650; first compound 0.3162 µM): 0.688
relative viability (NCI-H650; first compound 1 µM): 0.466
relative viability (NCI-H838; first compound 0.01 µM): 0.809
relative viability (NCI-H838; first compound 0.03162 µM): 0.781
relative viability (NCI-H838; first compound 0.1 µM): 0.762
relative viability (NCI-H838; first compound 0.3162 µM): 0.687
relative viability (NCI-H838; first compound 1 µM): 0.301
relative viability (SK-MES-1; first compound 0.01 µM): 1.05
relative viability (SK-MES-1; first compound 0.03162 µM): 0.966
relative viability (SK-MES-1; first compound 0.1 µM): 1.08
relative viability (SK-MES-1; first compound 0.3162 µM): 0.999
relative viability (SK-MES-1; first compound 1 µM): 0.614
